Results: patent CN114848615A, “和厚朴酚小分子自主装纳米粒及制备方法” (Tianjin University, priority 2022, dated 2022)

Assay: SEM/TEM characterisation and appearance/distribution in water
Type: physicochemical
Conditions: in words

distribution/appearance in water: 形成浑浊的白色浆液
Compound: C=CCc1ccc(O)c(-c2ccc(O)c(CC=C)c2)c1 [HK, 和厚朴酚]
